The text below walks through data of patent US20110201568A1, “PHYOTOCHEMICAL COMPOSITION AND A PROCESS THEREOF” (priority 2008, published 2011).

For experiment [1], the target named is porcine pancreatic elastase (Sus scrofa, UniProt P00772). Put plainly: Elastase inhibition assay. It is filed as biochemical. The protocol:
In brief, 233 μl of each test solutions/reference standard (various concentrations) in 100 mM Tris-HCl pH8.0 and 7 μl of enzyme (porcine pancreatic elastase, 0.84 units/ml) solution was incubated at 37° C. for 15 mins. Following incubation, 20 μl of substrate (n-succinyl-ala-ala-ala-p-nitroanilide) solution was added and incubated at 37° C. for 30 mins. The absorbance was measured at 405 nm. A control reaction was carried out without the test sample. The percentage inhibition was calculated by the equation [absorbance (control)−absorbance (test)]/absorbance (control)×100]. The IC50 values were determined using log-probit analysis.

For experiment [2], the system named is Helicobacter pylori standard strain ATCC 43504. Put plainly: MIC/MBC microbroth dilution assay, strain ATCC 43504. The format is cell-based. Particulars: ATCC43504, cell count ~10^6-10^7 CFU/ml. The method, then: (§1) • MICs of the two samples were determined employing one clinical (80A) and one standard (ATCC 43504) strain (Osato, 2000). • Two-fold serial dilutions of the samples were performed in 96-well microtitre plate. • Plates were kept for appropriate time in Incubator under optimum growth condition. • Following incubation, the plates were examined visually, and the lowest concentration showing complete inhibition of growth was recorded as the MIC of the respective sample.
(§2) • Aliquots of culture in which no growth had been detected were taken from the wells of the above microtitre plates and used to streak on fresh agar plates. • MBCs were determined by visual inspection of such plates after further incubation and the point where no growth (less than 10 colony) appeared was considered as the MBCs.

The subject of experiment [3] is Helicobacter pylori clinical strain 80A. The experiment in a line: Anti Helicobacter pylori disc diffusion sensitivity assay, clinical strain 80A. It is filed as cell-based. Particulars: 10 ng/disc (standard drug). The method, then:
(§3) For water containing sample, discs were first placed on the plate and then 5-10 μl of each sample, was added. The results are shown in below table: 10.

Experiment [4] has the same test system. The experiment in a line: MIC/MBC microbroth dilution assay, strain 80A. It is filed as cell-based. Particulars: cell count ~10^6-10^7 CFU/ml. The method, then: as §1, §2
A further experiment concerns Helicobacter pylori. The experiment in a line: Anti Helicobacter pylori activity, overall observations. It is filed as cell-based. The conditions noted are these: strains 80A and ATCC 43504.
The subject of experiment [5] is Helicobacter pylori standard strain ATCC 43504. The experiment in a line: Anti Helicobacter pylori disc diffusion sensitivity assay, standard strain ATCC 43504. The format is cell-based. Particulars: 40 ng/disc (standard drug). The method, then: as §3
For experiment [6], the system named is cold stress induced ulcer. The experiment in a line: Cold stress induced ulcer model. The format is in vivo, albino Wistar rats.
Experiment [7] has as its system pylorus ligation induced ulcer. Put plainly: Pylorus ligation induced ulcer model. It is filed as in vivo, albino Wistar rats. The conditions noted are these: 10 mg/kg; mean ± SEM, n = 6. The source says:
Details of the study are provided in the below table: 4. [table]

Setting [8] is: porcine pancreatic elastase, log-probit analysis, read-out: IC50 in elastase inhibition assay (converted).

≈ marks a conversion by molar mass, not a printed value. Read-outs that look alike come from different tables or passages of the source.

Chain of porcine pancreatic elastase (P00772 27-266): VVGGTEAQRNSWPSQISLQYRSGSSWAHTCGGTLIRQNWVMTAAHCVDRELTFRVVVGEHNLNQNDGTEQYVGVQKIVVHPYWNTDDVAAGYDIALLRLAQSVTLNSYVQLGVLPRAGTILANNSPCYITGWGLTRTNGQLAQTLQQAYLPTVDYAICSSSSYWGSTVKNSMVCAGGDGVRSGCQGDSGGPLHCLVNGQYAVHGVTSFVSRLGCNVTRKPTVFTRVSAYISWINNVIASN

Consider `CCCCCCCCCCCCCCCCCCCCOC(=O)/C=C/c1ccc(O)c(O)c1` [Eicosanyl caffeate(1), eicosanyl caffeate], for which the IC50 in experiment [1] (setting [8]) is 2150 nM.

With `CC[C@H]1OC(=O)[C@H](C)[C@@H](O[C@H]2C[C@@](C)(OC)[C@@H](O)[C@H](C)O2)[C@H](C)[C@@H](O[C@@H]2O[C@H](C)C[C@H](N(C)C)[C@H]2O)[C@](C)(OC)C[C@@H](C)C(=O)[C@H](C)[C@@H](O)[C@]1(C)O` [Clarithromycin], in experiment [2], the MBC came out at 0.05 µg/mL (≈ 0.0668 µM) and inhibition of growth (MIC) required 0.025 µg/mL (≈ 0.0334 µM). Besides, in experiment [3], the “Inhibition Zone Diameter in strain 80A” value is 1.8-2.0 cm. In experiment [4], this compound registered an MBC of 0.025 µg/mL (≈ 0.0334 µM) and an MIC of 0.013 µg/mL (≈ 0.0174 µM). Besides, in the experiment with Helicobacter pylori, the “anti Helicobacter pylori activity (disc diffusion observation)” value is recorded as “showed appropriate zone of inhibition”. Moreover, the “Inhibition Zone Diameter in strain ATCC 43504” value in experiment [5] is listed as 1.8-2.0 cm.

With `CCCCCCCCCCCCCCCCCCCCCCOC(=O)/C=C/c1ccc(O)c(O)c1` [Docosyl caffeate (2), docosyl caffeate], the IC50 in experiment [1] (setting [8]) is 2860 nM.

As for `C[C@H]1[C@H](C)CC[C@]2(C(=O)O)CC[C@]3(C)C(=CC[C@@H]4[C@@]5(C)CC[C@H](O)C(C)(C)[C@@H]5CC[C@]43C)[C@H]12` [Ursolic acid], in experiment [1], the IC50 is 23600 nM.

As for `COc1ccc2[nH]c([S+]([O-])Cc3ncc(C)c(OC)c3C)nc2c1` (centres unmarked) [Omeprazole], in experiment [6] (10 mg/kg, mean ± SEM, n = 6), the Ulcer index worked out at 0.67 ± 0.49 and the pH stood at 6.50 ± 0.22. Also, the pH of stomach result in experiment [6] (comparison Table 12 remark, ulcer model not specified) was “the pH to more than 6”. Also, in experiment [7], the Gastric content stood at 2.42 ± 0.24 mL, the Total acidity is reported as 15.33 ± 0.92 mEq/L/100 g, the Ulcer index is reported as 3.33 ± 1.38 and the pH stood at 6.89 ± 0.14.
